According to US8759073B2, “Method for effectively controlling harmful organisms in large-scale culture of microalgae” (ENN Science & Technology Development Co., Ltd., priority 2009, dated 2014):
Entries after “also recorded” stand apart in the source; their conditions may differ.

Key:
[1] = test system: Oxyrrhis; test: Control of Oxyrrhis contamination in microalgae culture, microscope examination; type: cell-based, Oxyrrhis sp
From the text: If the contaminated alga liquid is identified as acid tolerant contamination, pH value is raised up with alkalis in the culture system of the microalgae and maintained for a period of time. The pH value cannot be higher than the maximal tolerable pH of the microalgae. […] In an embodiment, said alkali can be ammonia. In an embodiment, said alkali can be NaOH. In an embodiment, said alkali can be 1M NaOH. Depending on different pH requirements and different culture systems, alkalis with different concentrations can be used according to the agitation condition, as long as the transient pH is not too high to be harmful to microalgae, and dilution of the cell concentration in the culture system (caused by adding too much alkali solution) should also be avoided. […] In an embodiment, the pH of the culture system is adjusted to 11.5-12.0 with 1M NaOH or 1M ammonia. In an embodiment, the pH of the culture system is adjusted to 11.0-11.8 or 8.0-11.0 with 1M NaOH or 1M ammonia. In an embodiment, the pH of the culture system is adjusted to 8.0-11.0, 11.5-12.0 or 11.0-11.8 and maintained for 3 hours.
Microscope examination is always used as one of the bases for determining the growth status in the process of microalgae culture.
Chlorella sp. (purchased from FACHB collection, Wuhan Aquatic Research Institure, Chinses Academy of Sciences) was cultured in a 320 L bubbling reactor (manufactured by Longfang Jiangchuan plexiglass Co. Ltd., φ300 mm×2 m) out-of-doors under a sunlight film. The culture condition included: a temperature of about 25 °C, a humidity of 60%-80%, and an illumination of 8000-20000 lux. Modified SM (see Table 2) (pH 7.0-9.0 for the normal culture) was used. […] Then, CO2 was aerated to adjust pH to be 7.0-8.0.
Chlorella sp. (obtained from Jinan University) was cultured in a 320 L bubbling reactor (manufactured by Longfang Jiangchuan plexiglass Co. Ltd., φ300 mm×2 m) out-of-doors under a sunlight film (with a temperature of about 25 °C, a humidity of 60%-80%, and an illumination of 8000-20000 lux). Modified SM medium (see Table 2) was used. When Amoeba, Oxyrrhis and ciliate contaminations were observed is with an oil immersion lens (Nikon fluorescent invert microscope Ti series), pH was adjusted to 11.0-11.8 with 1M NaOH. […] Then, CO2 was aerated continuously to saturation (pH 5.6). […] Then air was sufficiently aerated.
Chlorococcum sp. (obtained from Qingdao Marine Institute) was cultured in a 60 L glass plate reactor (manufactured by Longfang Jiangchuan plexiglass Co. Ltd., OP=10 cm) under a sunlight film (with a temperature of about 25 °C, a humidity of 60%-80%, and an illumination of 8000-20000 lux) (pH 8.0-9.0 for the normal culture). Modified BG11 medium (see Table 3) was used. […] Then CO2 was aerated and pH was adjusted to 7.0-8.0.
Chlorococcum sp. (obtained from Qingdao Marine Institute) was cultured in a 60 L glass plate reactor (manufactured by Longfang Jiangchuan plexiglass Co. Ltd., OP=10 cm) under a sunlight film (with a temperature of about 25 °C, a humidity of 60%-80%, and an illumination of 8000-20000 lux) (pH 8.0-9.0 for the normal culture). Modified BG11 medium (see Table 3) was used. […] One hour later, CO2 was aerated to saturation (about pH 5.6) for 24 hour continuously. […] Then air was sufficiently aerated.

[2] = test system: Nannochloris sp.; test: Growth of cultured algae after treatment, 1.5 m^3 glass plate reactor; type: cell-based; conditions: Example 9; CO2 periodically at an interval of 2 hours, 2 days
Method: Nannochloris sp. […] Modified BG11 medium (see Table 4) was used. […] Then CO2 was aerated periodically at an interval of 2 hours (pH ranged within 5.0-8.5).

[3] = test system: ciliate; test: Control of ciliate contamination (mixed contamination) in microalgae culture, microscope examination; type: cell-based
From the text: In an embodiment, the pH of the culture system is first raised by alkalis, followed by aeration of CO2 to saturation. When the harmful organisms are observed as being in control under a microscope (for example, these harmful organisms such as Oxyrrhis, Amoeba and ciliate cannot be observed under a microscope or the activity of the harmful organisms has been reduced), the pH value is then adjusted back to the optimal pH suitable for microalgae growth by sufficiently aerating air. In an embodiment, an interval of 1 hour exists between the step of raising pH of the culture system with an alkali and the step of aerating CO2 to saturation. In an embodiment, said alkali can be ammonia. In an embodiment, said alkali can be 1M NaOH. […] In an embodiment, the pH of the culture system is adjusted to 11.5-12.0, 11.0-11.8 or 8.0-11.0 with 1M NaOH or 1M ammonia. In an embodiment, the pH of the culture system is adjusted to 11.5-12.0, 11.0-11.8 or 8.0-11.0 and maintained for 1 hours, followed by aeration of CO2 to saturation for about 24 hours. In an embodiment, the pH of the culture system is adjusted to 11.5-12.0, 11.0-11.8 or 8.0-11.0 and maintained for 1 hours, followed by aeration of CO2 to saturation for about 23 hours.
Chlorella sp. […] Modified SM medium (see Table 2) was used. […] Then air was sufficiently aerated.
Chlorococcum sp. […] Modified BG11 medium (see Table 3) was used. […] Then air was sufficiently aerated. Eighteen hours later, Chlorococcum sp. could resume to grow.
Modified SM (see Table 2) was used. […] Then air was sufficiently aerated. Twenty-four hours later, the algae could resume to grow.
Then air was sufficiently aerated. Eighteen hours later, Chlorococcum sp. could resume to grow.
Modified SM (see Table 2) was used. […] One hour later, CO2 was aerated to saturation for 23 hour continuously (about pH 5.8). […] Then air was sufficiently aerated. Twenty-four hours later, the algae could resume to grow.

[4] = test system: diatom; test: Control of diatom contamination in culture of Chlorococcum sp., microscope examination; type: cell-based; conditions: Example 8
From the text: Chlorococcum sp. […] Modified BG11 medium (see Table 3) was used. […] Then air was sufficiently aerated.

[5] = test system: Dunaliella tertiolecta; test: Growth of cultured algae after treatment, 120 L bubbling reactor; type: cell-based; conditions: Example 1; CO2 intermittently pH 6.0-6.5 for 2 days, salinity decreased by 1%
From the text: Salinity was reduced by 1% (e.g. from 9% to 8%) by way of dilution with water. Then air was sufficiently aerated.

[6] = Example 4, after 1M NaOH pH 11.0-11.8 1 h, CO2 to saturation (pH 5.6) 24 hours
[7] = Example 7, after 1M NaOH pH 11.5-12.0 1 h, CO2 to saturation (about pH 5.6) 24 hour
[8] = Example 10, after 1M NaOH pH 11.5-12.0 1 h, CO2 to saturation (about pH 5.8) 23 hour
[9] = Example 12, after 1M ammonia pH 9.0 1 h, CO2 to saturation (pH 5.6) 24 hours
[10] = Example 14, after 1M ammonia pH 9.0 1 h, CO2 to saturation (about pH 5.6) 24 hour
[11] = Example 15, after 1M ammonia pH 10.0 1 h, CO2 to saturation (about pH 5.8) 23 hour

Which results are given for O=C=O [CO2, carbon dioxide]?
Oxyrrhis, result of microscope examination [1, 6]: no Amoeba or Oxyrrhis; Oxyrrhis, result of microscope examination [1, 7]: no Amoeba or Oxyrrhis; Oxyrrhis, result of microscope examination [1, 8]: no Amoeba or Oxyrrhis; Oxyrrhis, result of microscope examination [1, 9]: no Amoeba or Oxyrrhis; Oxyrrhis, result of microscope examination [1, 10]: no Amoeba or Oxyrrhis; Oxyrrhis, result of microscope examination [1, 11]: no Amoeba or Oxyrrhis; growth rate of the algae [2]: rarely affected; also recorded: not affected; ciliates, result of microscope examination [3, 6]: a few inactive and immotile ciliates; ciliates, result of microscope examination [3, 7]: a few inactive and immotile ciliates; ciliates, result of microscope examination [3, 8]: a few inactive and immotile ciliates; ciliates, result of microscope examination [3, 9]: a few inactive and immotile ciliates; ciliates, result of microscope examination [3, 10]: a few inactive and immotile ciliates; ciliates, result of microscope examination [3, 11]: a few inactive and immotile ciliates; diatom, result of microscope examination ([4]; CO2 aerated continuously to saturation (about pH 5.6), thirty-six hours): some diatom lost intracellular pigment and only empty shells were left; residual contaminating diatom after air aeration ([4]; saturated CO2 36 hours, then air sufficiently aerated): reduced activity, grew slowly, and would not become dominant algae; also recorded: grew slowly; impact on the growth of algae [5]: not affected essentially; also recorded: little impact on the growth of algae
